In patent US20100075918A1, “HYALURONIDASE INHIBITORS AS ANTI-CANCER AGENTS” (priority 2006, published 2010):
pIC50: −log10 of the molar value.

Legend:
HYAL1-type HAase = target: T1, HYAL1-type HAase (Homo sapiens, UniProt Q12794); assay: HAase ELISA-like assay, inhibition of HYAL1 activity; format: biochemical
T1 construct: HYAL1 cDNA encoding the full-length protein inserted into an expression vector; made in house
T1 sequence (Q12794 22-435): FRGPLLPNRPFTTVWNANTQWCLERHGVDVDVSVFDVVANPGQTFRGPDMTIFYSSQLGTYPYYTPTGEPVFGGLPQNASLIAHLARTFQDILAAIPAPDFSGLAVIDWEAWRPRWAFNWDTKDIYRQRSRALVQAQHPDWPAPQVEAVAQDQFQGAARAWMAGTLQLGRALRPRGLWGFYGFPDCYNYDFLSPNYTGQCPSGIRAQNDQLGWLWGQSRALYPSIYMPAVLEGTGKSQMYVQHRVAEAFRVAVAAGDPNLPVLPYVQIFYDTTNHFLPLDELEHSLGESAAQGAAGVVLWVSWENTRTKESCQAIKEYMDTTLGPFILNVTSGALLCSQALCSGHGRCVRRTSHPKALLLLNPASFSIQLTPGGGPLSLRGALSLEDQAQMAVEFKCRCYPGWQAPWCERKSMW
Protocol: Briefly, a stable HYAL1-expressing clone having about 40 mU/mL activity was expanded in T75 cm^2 flasks.
A microtiter well plate coated with human umbilical cord HA (MP Biomedicals; Irvine, Calif.) was incubated with about 40 mU/mL of HYAL1-type HAase in the presence or absence of various HAase inhibitors in assay buffer. For the HYAL1-type activity assay, 0.1 M sodium formate, 0.15 M NaCl, and 0.02% bovine serum albumin buffer (pH 4.2) was used as the assay buffer.
The effect of HAase inhibitors on the activity of HYAL1-type HAase was tested at 0, 1, 2, 4, 6, 8, 10, 20, 40, 60, 80 and 100 μg/mL concentrations of each inhibitor. […] Each plate was developed for 3 min and the reaction was terminated by adding 3 N HCl. HAase activity (mU/mL) was calculated from a standard graph prepared by plotting known amounts of Streptomyces HAase (10^−4 U/mL) versus (Control (no enzyme) OD405 nm-Sample OD405 nm). […] The data presented are mean ±SEM from duplicate measurements in two independent experiments.

[1] = test system: HYAL1, testicular, honeybee, and Streptomyces hyaluronidases (HAases); conditions: Isoyama et al. (2006); 21 potential inhibitors; cited from earlier work
HYAL1 = target: T2, HYAL1 (Homo sapiens, UniProt Q12794); conditions: Isoyama et al. (2006); cited from earlier work
T2 sequence (Q12794 22-435): T1 sequence (Q12794 22-435)

[2] = about 40 mU/mL HYAL1-type HAase, pH 4.2, 37° C. for 16 hours, N.D. = no inhibition detected

Row | Molecule | IC50 (μg/mL), inhibition of HYAL1 activity (HYAL1-type HAase; [2]) [µg/mL] | further results
1 | CCCCCCCCCCCCCCS(=O)(=O)O [1-Tetradecane sulfonic acid, 1-tetradecane sulfonic acid] |  | IC50 (HYAL1-type HAase; about 40 mU/mL HYAL1-type HAase, pH 4.2, 37° C. for 16 hours, N.D. = no inhibition detected, read-out: IC50 (μg/mL), inhibition of HYAL1 activity (converted)): 67.9 µM; Effectiveness as HAase inhibitor [1]: not effective HAase inhibitors
2 | poly(styrene-4-sulfonate) [PSS 350,000] | 13.15 | 
3 | poly(styrene-4-sulfonate) [PSS 49,000] | 15.2 | 
4 | poly(styrene-4-sulfonate) [PSS 17,000] | 15.2 | 
5 | Heparin | 15.1 | HYAL1 inhibition (HYAL1): potent inhibitor
6 | poly(styrene-4-sulfonate) [PSS 32,000] | 13.5 | 
7 | poly(styrene-4-sulfonate) [PSS 77,000] | 14.8 | 
8 | poly(styrene-4-sulfonate) [PSS 1400] | 26.8 | IC50 to inhibit HYAL1 activity, fold higher than that for PSS 999,000 and PSS 17,000 (HYAL1-type HAase): 2.5 fold
9 | poly(styrene-4-sulfonate) [PSS 6800] | 22.71 | IC50 to inhibit HYAL1 activity, fold higher than that for PSS 999,000 and PSS 17,000 (HYAL1-type HAase): 2.5 fold
10 | poly(styrene-4-sulfonate) [PSS 150,000] | 10.5 | 
11 | poly(styrene-4-sulfonate) [PSS 210] |  | IC50 for HYAL1 (HYAL1): no inhibition
12 | CC1(C)[C@@H](O[C@H]2O[C@H](C(=O)O)[C@@H](O)[C@H](O)[C@H]2O[C@@H]2O[C@H](C(=O)O)[C@@H](O)[C@H](O)[C@H]2O)CC[C@]2(C)[C@H]3C(=O)C=C4[C@@H]5C[C@@](C)(C(=O)O)CC[C@]5(C)CC[C@@]4(C)[C@]3(C)CC[C@@H]12 [Glycerrhizic acid, glycerrhizic acid] | 32.4 | Effectiveness as HAase inhibitor [1]: not effective HAase inhibitors
13 | O=C([O-])CC([S-])C(=O)[O-].[Au+].[Na+].[Na+] (stereo not drawn) [sodium aurothiomalate] |  | Effectiveness as HAase inhibitor [1]: not effective HAase inhibitors
14 | poly(styrene-4-sulfonate) [PSS 4300] | 8.48 | 
15 | poly(styrene-4-sulfonate) [PSS 990,000] | 9.6 | pIC50 (HYAL1): 8.02
